Data taken from BindingDB's records for patent US11896597 (Dizal (Jiangsu) Pharmaceutical, 2024).

Columns and labels:
[1] = biological target: Epidermal growth factor receptor (Homo sapiens, UniProt P00533); assay: Potency Assessment EGFR (WT) and EGFR Mutants
Description: (§1) The next day, tested compounds at a series of concentrations were added into each individual well of the plates, and the plates were incubated for 4 h at 37 C. with 5% CO2. […] The assay is an electrochemiluminescent method for determining both phosphorylated and total EGFR of cells with an MSD SECTOR Imager and the ratio of p-EGFR/total EGFR can be generated by the machine. The Her2 (Y1248) phosphorylation level (activity) of cells in each well were measured with MSD Kit named Phospho-ErbB2 (Tyr1248) Assay Whole Cell Lysate Kit according to the manufacturer's instruction (MESO SCALE DISCOVERY, Cat #K151CLD-3). The assay is an electrochemiluminescent method (MESO SCALE DISCOVERY) for determining both phosphorylated and total Her2 of cells with an MSD SECTOR Imager and then the ratio of p-Her2/total Her2 can be generated by the machine.

[2] = biological target: Epidermal growth factor receptor [T790M,L858R] (Homo sapiens, UniProt P00533, L858R/T790M); assay: Potency Assessment EGFR (WT) and EGFR Mutants
Epidermal growth factor receptor [T790M,L858R], sequence (P00533 25-1210 T790M/L858R limits assumed): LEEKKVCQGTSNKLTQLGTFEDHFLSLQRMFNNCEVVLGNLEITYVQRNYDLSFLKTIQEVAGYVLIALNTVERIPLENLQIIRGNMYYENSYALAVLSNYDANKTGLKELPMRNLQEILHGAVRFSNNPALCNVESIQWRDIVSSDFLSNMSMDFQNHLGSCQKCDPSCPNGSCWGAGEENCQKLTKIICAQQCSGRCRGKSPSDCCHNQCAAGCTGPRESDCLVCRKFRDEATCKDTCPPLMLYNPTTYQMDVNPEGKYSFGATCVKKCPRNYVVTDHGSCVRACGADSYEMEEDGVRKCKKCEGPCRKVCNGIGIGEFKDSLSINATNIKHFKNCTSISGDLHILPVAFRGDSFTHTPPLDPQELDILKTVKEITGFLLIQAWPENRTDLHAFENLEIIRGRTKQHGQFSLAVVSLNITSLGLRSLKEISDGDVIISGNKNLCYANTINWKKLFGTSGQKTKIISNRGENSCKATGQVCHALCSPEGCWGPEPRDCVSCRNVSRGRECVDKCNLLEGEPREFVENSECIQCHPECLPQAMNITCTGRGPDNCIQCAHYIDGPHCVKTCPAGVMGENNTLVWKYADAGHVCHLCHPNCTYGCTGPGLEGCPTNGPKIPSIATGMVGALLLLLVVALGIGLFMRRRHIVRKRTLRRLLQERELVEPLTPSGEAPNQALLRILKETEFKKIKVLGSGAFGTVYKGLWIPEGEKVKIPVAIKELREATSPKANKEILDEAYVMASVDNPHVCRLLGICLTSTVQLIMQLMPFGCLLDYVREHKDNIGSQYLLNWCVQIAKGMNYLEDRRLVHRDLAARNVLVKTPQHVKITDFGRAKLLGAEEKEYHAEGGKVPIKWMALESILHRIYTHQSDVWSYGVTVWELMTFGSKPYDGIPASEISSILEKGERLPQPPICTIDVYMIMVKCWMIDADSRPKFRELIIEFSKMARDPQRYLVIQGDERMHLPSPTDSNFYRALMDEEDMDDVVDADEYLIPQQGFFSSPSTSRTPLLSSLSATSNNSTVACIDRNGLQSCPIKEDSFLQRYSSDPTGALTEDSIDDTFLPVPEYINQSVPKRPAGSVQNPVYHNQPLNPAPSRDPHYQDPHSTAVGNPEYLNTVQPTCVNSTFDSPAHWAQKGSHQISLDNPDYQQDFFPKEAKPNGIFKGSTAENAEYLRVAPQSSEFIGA
Description: as §1

Epidermal growth factor receptor, sequence (P00533 whole entry): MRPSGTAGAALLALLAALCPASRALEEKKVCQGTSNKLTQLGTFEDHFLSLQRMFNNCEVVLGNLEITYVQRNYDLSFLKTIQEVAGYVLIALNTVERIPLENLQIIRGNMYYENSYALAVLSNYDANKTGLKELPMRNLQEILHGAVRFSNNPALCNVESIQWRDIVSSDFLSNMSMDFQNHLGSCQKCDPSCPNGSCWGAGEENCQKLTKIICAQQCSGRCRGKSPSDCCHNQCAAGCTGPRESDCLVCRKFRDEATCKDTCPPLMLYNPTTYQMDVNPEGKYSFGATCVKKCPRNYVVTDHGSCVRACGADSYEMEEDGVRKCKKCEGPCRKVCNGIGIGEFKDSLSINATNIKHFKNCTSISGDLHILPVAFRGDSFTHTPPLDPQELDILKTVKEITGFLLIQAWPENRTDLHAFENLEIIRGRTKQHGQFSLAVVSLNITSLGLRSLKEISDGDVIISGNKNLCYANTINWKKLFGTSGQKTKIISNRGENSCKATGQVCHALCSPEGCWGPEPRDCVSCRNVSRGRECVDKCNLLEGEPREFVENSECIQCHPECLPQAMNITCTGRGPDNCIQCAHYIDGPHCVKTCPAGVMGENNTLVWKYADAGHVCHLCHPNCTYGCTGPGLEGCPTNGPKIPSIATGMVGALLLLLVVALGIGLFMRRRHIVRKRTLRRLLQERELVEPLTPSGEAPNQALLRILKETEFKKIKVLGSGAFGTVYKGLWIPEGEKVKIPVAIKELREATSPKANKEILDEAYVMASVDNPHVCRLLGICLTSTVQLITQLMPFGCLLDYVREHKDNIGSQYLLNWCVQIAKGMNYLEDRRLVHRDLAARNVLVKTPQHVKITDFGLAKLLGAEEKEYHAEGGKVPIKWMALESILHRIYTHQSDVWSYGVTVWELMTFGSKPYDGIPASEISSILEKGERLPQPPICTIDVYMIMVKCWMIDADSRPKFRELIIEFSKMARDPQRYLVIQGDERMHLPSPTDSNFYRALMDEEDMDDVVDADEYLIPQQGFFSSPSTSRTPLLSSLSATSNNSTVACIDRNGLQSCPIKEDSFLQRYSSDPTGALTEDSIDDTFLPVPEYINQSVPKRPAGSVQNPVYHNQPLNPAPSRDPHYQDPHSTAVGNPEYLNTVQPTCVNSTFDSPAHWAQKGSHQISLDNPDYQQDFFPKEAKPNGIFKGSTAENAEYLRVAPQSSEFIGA

**Q.** For C=CC(=O)Nc1cc(Nc2ncnc(Nc3cnc(C)cc3C(C)(C)O)n2)c(OC)cc1N(C)CCN(C)C [US11896597, Compound 6], which IC50 [1] is on record?
**A.** 103 nM

**Q.** What about the IC50 [2] of the same compound?
**A.** 8.4 nM

**Q.** Which IC50 [1] does the source give for C=CC(=O)Nc1cc(Nc2ncnc(Nc3ccc(C)nc3C(C)(C)O)n2)c(OC)cc1N(C)CCN(C)C [US11896597, Compound 7] here?
**A.** 88.1 nM

**Q.** What about the IC50 [2] of the same compound?
**A.** 1.7 nM

**Q.** C=CC(=O)Nc1cc(Nc2ncnc(Nc3ccccc3C3(O)COC3)n2)c(OC)cc1N(C)CCN(C)C [US11896597, Compound 10] was tested. Which IC50 [1] did it give?
**A.** 62.6 nM

**Q.** And the IC50 [2]?
**A.** 2.6 nM

**Q.** How did the IC50 [1] turn out when C=CC(=O)Nc1cc(Nc2ncnc(Nc3ccc(C(F)(F)F)cc3C(C)(C)O)n2)c(OC)cc1N(C)CCN(C)C [US11896597, Compound 13] was run?
**A.** 20.6 nM

**Q.** And the IC50 [2]?
**A.** 1.1 nM

**Q.** C=CC(=O)Nc1cc(Nc2ncnc(Nc3cc(F)c(F)cc3C(C)(C)O)n2)c(OC)cc1N(C)CCN1CCCCC1 [US11896597, Compound 24] was tested. Which IC50 [1] did it give?
**A.** 104 nM

**Q.** What about the IC50 [2] of the same compound?
**A.** 1 nM

**Q.** For C=CC(=O)Nc1cc(Nc2nccc(Nc3cc(Cl)c(F)cc3C(C)(C)O)n2)c(OC)cc1N(C)C[C@H]1C[C@H](C)CN1C [US11896597, Compound 90], which IC50 [1] is on record?
**A.** 357 nM

**Q.** What about the IC50 [2] of the same compound?
**A.** 1.4 nM
